Among the data in patent publication US10323000B2, “Indole derivatives and their use in neurodegenerative diseases” (priority 2014, dated 2019) are IC50 values, retold here.

Read-outs that look alike come from different tables or passages of the source.

One test addresses human P2X7 receptor (Homo sapiens (Human), UniProt Q99572). Kind of test: Pore permeation assay (YO PRO dye uptake). Format: cell-based.
For test [1], the target named is P2X7 (IL-1β release from THP-1 cells) (Homo sapiens (Human), UniProt Q99572). Kind of test: IL-1β release assay. The class given is cell-based. A digest of the protocol: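 THP-1 cells were differentiated with PMA 0.5 μM and primed 4 h with LPS 10 ng/ml. They were then pre-incubated 20 min with compound at 37° C and stimulated 30 min with BzATP 0.8 mM. Mature IL-1β released into the supernatant was quantified by sandwich ELISA.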

Where [2] appears, read: HEK293 transfected with human P2X7, BzATP 10 uM, YO PRO dye uptake, read-out: hP2X7 IC50.
Setting [3] is: THP-1 cells, LPS primed, 0.8 mM BzATP, mature IL-1β by sandwich ELISA, read-out: hTHP-1/IL-ib IC50.

Chain of P2X7 (IL-1β release from THP-1 cells) (Q99572 whole entry): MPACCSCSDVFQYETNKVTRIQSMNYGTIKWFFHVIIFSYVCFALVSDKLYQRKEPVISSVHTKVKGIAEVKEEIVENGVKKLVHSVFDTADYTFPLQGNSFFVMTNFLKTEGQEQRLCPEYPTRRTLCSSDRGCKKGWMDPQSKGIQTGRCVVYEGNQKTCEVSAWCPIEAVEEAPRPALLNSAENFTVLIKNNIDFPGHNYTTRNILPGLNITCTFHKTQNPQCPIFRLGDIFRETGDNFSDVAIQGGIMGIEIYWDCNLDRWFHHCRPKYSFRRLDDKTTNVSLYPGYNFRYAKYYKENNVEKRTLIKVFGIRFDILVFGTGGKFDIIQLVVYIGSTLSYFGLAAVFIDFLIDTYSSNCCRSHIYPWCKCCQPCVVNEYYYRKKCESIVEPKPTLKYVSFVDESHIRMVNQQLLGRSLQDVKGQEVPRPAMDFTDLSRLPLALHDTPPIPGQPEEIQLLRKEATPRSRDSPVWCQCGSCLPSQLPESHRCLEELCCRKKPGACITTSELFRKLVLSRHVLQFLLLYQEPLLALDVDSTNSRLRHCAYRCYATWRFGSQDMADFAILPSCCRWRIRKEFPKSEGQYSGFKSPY
Chain of human P2X7 receptor (Q99572 whole entry): as above

As for `O=C(NCC1(O)CCCC(F)(F)C1)c1cn(CC2CCN2)c2cccc(Cl)c12` (centres unmarked) [Compound 124, 1-(azetidin-2-ylmethyl)-4-chloro-N-((3,3-difluoro-1-hydroxycyclohexyl)methyl)-1H-indole-3-carboxamide], the IC50 (at human P2X7 receptor; in test [1]) was 10 to 100 nM in each case.

For `O=C(NCC1(O)CCCC(F)(F)C1)c1cn(C2CCNC2)c2cccc(Cl)c12` (centres unmarked) [Compound 120, 4-chloro-N-((3,3-difluoro-1-hydroxycyclohexyl)methyl)-1-(pyrrolidin-3-yl)-1H-indole-3-carboxamide], the IC50 (against human P2X7 receptor; in test [1]) was 10 to 100 nM each time.

As to `O=C(NCC1CCC(F)(F)CC1)c1cn(C[C@H]2CCCN2)c2cccc(Cl)c12` [Compound 154, (R)-4-chloro-N-((4,4-difluorocyclohexyl)methyl)-1-(pyrrolidin-2-ylmethyl)-1H-indole-3-carboxamide], the IC50 (at human P2X7 receptor; in test [1]) was 10 to 100 nM throughout.

With `CC1(C)CCCC(O)(CNC(=O)c2cn(C3COC3)c3cccc(Cl)c23)C1` (centres unmarked) [Compound 64, 4-Chloro-1-oxetan-3-yl-1H-indole-3-carboxylic acid (1-hydroxy-3,3-dimethyl-cyclohexylmethyl)-amide], the IC50 (on human P2X7 receptor; in test [1]) was 10 to 100 nM throughout.

Regarding `O=C(NC[C@]1(O)CCCC(F)(F)C1)c1cn(CCN2CCCC2=O)c2cccc(Cl)c12` [Compound 187, (S)-4-chloro-N-((3,3-difluoro-1-hydroxycyclohexyl)methyl)-1-(2-(2-oxopyrrolidin-1-yl)ethyl)-1H-indole-3-carboxamide], the IC50 on human P2X7 receptor lay within 10 to 100 nM; in test [1], 101 to 500 nM.

For the compound `O=C(NCCC1(O)CCCC1)c1cn(C2COC2)c2cccc(Cl)c12` [Compound 45, 4-chloro-N-(2-(1-hydroxycyclopentyl)ethyl)-1-(oxetan-3-yl)-1H-indole-3-carboxamide], the IC50 (on human P2X7 receptor (setting [2]); in test [1] (setting [3])) was greater than 1000 nM each time.

With `O=C(NCC1(O)CCC(F)(F)CC1)c1cn(C[C@@H]2CCCO2)c2cccc(Cl)c12` [Compound 134, (S)-4-chloro-N-((4,4-difluoro-1-hydroxycyclohexyl)methyl)-1-((tetra hydrofuran-2-yl)methyl)-1H-indole-3-carboxamide], the IC50 against human P2X7 receptor was in the range of 10 to 100 nM; in test [1] it was 101 to 500 nM.

Turning to `O=C(NC[C@@]1(O)CCCC(F)(F)C1)c1cn(CCN2CCCC2)c2cccc(Cl)c12` [Compound 176, (R)-4-chloro-N-((3,3-difluoro-1-hydroxycyclohexyl)methyl)-1-(2-(pyrrolidin-1-yl)ethyl)-1H-indole-3-carboxamide], the IC50 (on human P2X7 receptor (setting [2]); in test [1] (setting [3])) was greater than 1000 nM throughout.

Turning to `O=C(NCC1CCC(F)(F)CC1)c1cn(CCOC2CC2)c2cccc(Cl)c12` [Compound 149, 4-chloro-1-(2-cyclopropoxyethyl)-N-((4,4-difluorocyclohexyl)methyl)-1H-indole-3-carboxamide], the IC50 lay within 10 to 100 nM on human P2X7 receptor and 101 to 500 nM in test [1].

Take `O=C(NCC1CCC(F)(F)CC1)c1cn(C[C@@H]2CCCO2)c2cccc(Cl)c12` [Compound 132, (S)-4-chloro-N-((4,4-difluorocyclohexyl)methyl)-1-((tetrahydrofuran-2-yl)methyl)-1H-indole-3-carboxamide]: the IC50 (at human P2X7 receptor; in test [1]) was 10 to 100 nM each time.

Consider `O=C(NCC1(O)CCCC(F)(F)C1)c1cn(C[C@H]2CCCO2)c2cccc(Cl)c12` (stereo partly drawn) [Compound 133, 4-chloro-N-((3,3-difluoro-1-hydroxycyclohexyl)methyl)-1-(((R)-tetrahydrofuran-2-yl)methyl)-1H-indole-3-carboxamide], for which the IC50 (at human P2X7 receptor; in test [1]) was 10 to 100 nM throughout.

Consider `O=C(NC[C@]1(O)CCCC(F)(F)C1)c1cn(CCN2CCCC2)c2cccc(Cl)c12` [Compound 177, (S)-4-chloro-N-((3,3-difluoro-1-hydroxycyclohexyl)methyl)-1-(2-(pyrrolidin-1-yl)ethyl)-1H-indole-3-carboxamide], for which the IC50 (against human P2X7 receptor; in test [1]) was 101 to 500 nM in each case.

`CC(C(=O)N(C)C)n1cc(C(=O)NCC2CCC(F)(F)CC2)c2c(Cl)cccc21` (centres unmarked) [Compound 200, 4-chloro-N-((4,4-difluorocyclohexyl)methyl)-1-(1-(dimethylamino)-1-oxopropan-2-yl)-1H-indole-3-carboxamide]: the IC50 at human P2X7 receptor (setting [2]) was less than 10 nM; in test [1], 10 to 100 nM.

Regarding `COCCn1cc(C(=O)NCCc2ccccc2Cl)c2c(Cl)cccc21` [Compound 35, 4-Chloro-1-(2-methoxy-ethyl)-1H-indole-3-carboxylic acid [2-(2-chloro-phenyl)-ethyl]-amide], the IC50 (against human P2X7 receptor; in test [1]) was 101 to 500 nM in each case.

`O=C(NCC1CC(C(F)(F)F)CC(F)(F)C1)c1cn(CC2CCCO2)c2cccc(Cl)c12` (centres unmarked) [Compound 141, 4-chloro-N-((3,3-difluoro-5-(trifluoromethyl)cyclo-hexyl)methyl)-1-((tetrahydrofuran-2-yl)methyl)-1H-indole-3-carboxamide]: the IC50 (against human P2X7 receptor; in test [1]) was 10 to 100 nM throughout.

Take `CN(C)C(=O)Cn1cc(C(=O)NCC2CCC(F)(F)CC2)c2c(Cl)cccc21` [Compound 208, 4-Chloro-1-dimethylcarbamoylmethyl-1H-indole-3-carboxylic acid (4,4-difluoro-cyclohexylmethyl)-amide]: the IC50 at human P2X7 receptor (setting [2]) was less than 10 nM; in test [1] it was 10 to 100 nM.

Take `O=C(NCC1CCCC(C(F)(F)F)C1)c1cn(C2COC2)c2cccc(Cl)c12` (centres unmarked) [Compound 56, 4-Chloro-1-oxetan-3-yl-1H-indole-3-carboxylic acid (3-trifluoromethyl-cyclohexylmethyl)-amide]: the IC50 at human P2X7 receptor lay in the range of 10 to 100 nM; in test [1] it was 101 to 500 nM.

In the case of `CC(NC(=O)c1cn(C2COC2)c2cccc(Cl)c12)[C@]12C[C@H]3C[C@H](C[C@H](C3)C1)C2` (some centres unmarked) [Compound 62, 4-Chloro-1-oxetan-3-yl-1H-indole-3-carboxylic acid (1-adamantan-1-yl-ethyl)-amide], the IC50 (at human P2X7 receptor; in test [1]) was 10 to 100 nM in each case.

`O=C(NCC1CCCC2(CC2)C1)c1cn(C2COC2)c2cccc(Cl)c12` (centres unmarked) [Compound 68, 4-chloro-1-(oxetan-3-yl)-N-(spiro[2.5]octan-5-ylmethyl)-1H-indole-3-carboxamide]: the IC50 at human P2X7 receptor (setting [2]) is less than 10 nM; in test [1], 10 to 100 nM.

For `O=C(NCC1(O)CCCC(F)(F)C1)c1cn(CC2CCCO2)c2cccc(Cl)c12` (centres unmarked) [Compound 139, 4-chloro-N-((3,3-difluoro-1-hydroxycyclohexyl)methyl)-1-((tetrahydrofuran-2-yl)methyl)-1H-indole-3-carboxamide], the IC50 (at human P2X7 receptor; in test [1]) was 10 to 100 nM throughout.

For the compound `CN1CCCC1Cn1cc(C(=O)NCC2CCC(F)(F)CC2)c2c(Cl)cccc21` (centres unmarked) [Compound 170, 4-chloro-N-((4,4-difluorocyclohexyl)methyl)-1-((1-methylpyrrolidin-2-yl)methyl)-1H-indole-3-carboxamide], the IC50 (against human P2X7 receptor; in test [1]) was 10 to 100 nM in each case.

Consider `COCCn1cc(C(=O)NCC2CCC(F)(F)CC2)c2c(C(F)(F)F)cccc21` [Compound 199], for which the IC50 (on human P2X7 receptor; in test [1]) was 101 to 500 nM in each case.
